Columns and labels:
h12/15-LOX = h12/15-LOX (Homo sapiens (Human), UniProt P16050); assay: 12/15-LOX enzyme inhibition IC50 assay (Examples 1 and 2); format: biochemical
Description: Enzyme was then added to the cuvettes. […] The % inhibition for each test compound concentration were calculated as follows: […]

[1] = Aqueous solubility of exemplified compounds (Example 3); format: physicochemical; settings: aqueous solubility
[2] = Metabolic stability of exemplified compounds (Example 4); format: in vitro ADME
[3] = Solubility in formulation vehicles (Solutol HS-15/PEG400, Captisol); format: physicochemical; settings: 10% Solutol/90% PEG400
Description: Combinations of Solutol HS-15 (also known as Kolliphor HS-15) with PEG400 provided a good vehicle to solubilize the tested compounds. Specifically, 10% Solutol/90% PEG400 was used to prepare 20 mg/ml solutions of compound 1, compound 44, and compound 32. 10% Solutol/15% H2O/[…] led to 10 mg/ml solutions of the tested compounds.
20 mg/ml were obtained in 20% Captisol, allowing for intravenous delivery in the mouse stroke model.

Mouse 12/15-LOX E. coli = Mouse 12/15-LOX E. coli (Mus musculus (Mouse), UniProt P39654); assay: Mouse 12/15-LOX E. coli IC50; format: biochemical
Mouse HT22 = Mouse HT22 EC50; format: cell-based; settings: HT-22
Rat Primary Neuron = Rat Primary Neuron EC50; format: cell-based
15-LOX2 = 15-LOX2 (Homo sapiens (Human), UniProt O15296); assay: Selectivity versus 15-LOX2; format: biochemical
5-LOX = 5-LOX (Homo sapiens (Human), UniProt P09917); assay: Selectivity versus 5-LOX; format: biochemical
COX-1 = assay: Selectivity versus COX-1; format: biochemical
COX-2 = COX-2 (Homo sapiens (Human), UniProt P35354); assay: Selectivity versus COX-2; format: biochemical
[4] = tested on: experimental stroke model in mice (MCAO); assay: Long-term outcome after MCAO: corner test; format: in vivo, mouse; settings: 40 mg/kg i.v. 2 hours post reperfusion
Description: (§1) Long-term outcome experiment: 40 mg/kg cmpd. 1 delivered I.V. 2 hours post reperfusion, same as short term, compared to vehicle (10% solutol/90% PEG400). 45 mice operated, and 27 survived, mice were sacrificed on day 30.

[5] = tested on: experimental stroke model in mice (MCAO); assay: Long-term outcome after MCAO: foot fault test; format: in vivo, mouse; settings: 40 mg/kg i.v. 2 hours post reperfusion
Description: as §1

[6] = tested on: experimental stroke model in mice (MCAO); assay: Long-term outcome after MCAO: Y maze; format: in vivo, mouse; settings: 40 mg/kg i.v. 2 hours post reperfusion, versus vehicle
Description: as §1

SAH wild-type mice = assay: Subarachnoid hemorrhage (SAH) mouse model; format: in vivo; settings: wild-type mice with SAH
Source text: The effect of the exemplified compounds (which are, e.g., inhibitors of 12/15-LOX as discussed herein) on treating bran injury after subarachnoid hemorrhage can be assessed in a mouse model as described, for example, in Gaberel et al, Stroke, 2019, 50, 520-523, which is incorporated herein by reference in its entirety. Subarachnoid hemorrhage (SAH) is a devastating form of stroke. It may lead to substantial brain injury. The mouse model to study the impact of 12/15-LOX inhibitors on subarachnoid hemorrhage includes C57Bl6 wild-type mice and Alox15 knockout mice. These mice are subjected to SAH using direct blood injection technique. […] Immunohistochemistry, brain edema, blood-brain barrier leakage and functional outcomes were assessed 1 and 3 days after SAH induction. […]
All animal experiments were performed following protocols approved by the Massachusetts General Hospital Institutional Animal Care and Use Committee in accordance with the National Institutes of Health Guide for the Care and Use of Laboratory Animals. […] Sample sizes were evaluated as follows: based on prior experience, coefficients of variation around 35% between mice are expected. […]
Except the mice used for IHC 24 h after SAH induction, all mice were assessed at 72 hours using a 4-point Neuroscore scale, a 18 point Neuroscore scale, and by evaluating spontaneous activity. […]

Chain of Mouse 12/15-LOX E. coli (P39654 whole entry): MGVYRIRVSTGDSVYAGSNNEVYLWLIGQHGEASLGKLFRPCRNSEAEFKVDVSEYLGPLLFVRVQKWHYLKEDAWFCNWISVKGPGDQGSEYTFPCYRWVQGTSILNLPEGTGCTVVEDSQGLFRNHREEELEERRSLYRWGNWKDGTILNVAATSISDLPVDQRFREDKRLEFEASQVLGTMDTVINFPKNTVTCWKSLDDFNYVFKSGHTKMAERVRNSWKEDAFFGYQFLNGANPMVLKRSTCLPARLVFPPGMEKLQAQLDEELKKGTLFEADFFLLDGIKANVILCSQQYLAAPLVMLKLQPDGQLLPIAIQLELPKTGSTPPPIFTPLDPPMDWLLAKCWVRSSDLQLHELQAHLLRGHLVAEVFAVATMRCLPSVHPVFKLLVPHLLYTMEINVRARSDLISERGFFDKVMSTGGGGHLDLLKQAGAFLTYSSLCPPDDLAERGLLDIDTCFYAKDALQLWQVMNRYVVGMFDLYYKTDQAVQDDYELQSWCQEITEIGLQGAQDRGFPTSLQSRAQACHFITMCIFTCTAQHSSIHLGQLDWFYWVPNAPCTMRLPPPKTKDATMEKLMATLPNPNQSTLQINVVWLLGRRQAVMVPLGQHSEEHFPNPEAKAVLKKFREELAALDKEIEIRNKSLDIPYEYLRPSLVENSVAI
Chain of h12/15-LOX (P16050 whole entry): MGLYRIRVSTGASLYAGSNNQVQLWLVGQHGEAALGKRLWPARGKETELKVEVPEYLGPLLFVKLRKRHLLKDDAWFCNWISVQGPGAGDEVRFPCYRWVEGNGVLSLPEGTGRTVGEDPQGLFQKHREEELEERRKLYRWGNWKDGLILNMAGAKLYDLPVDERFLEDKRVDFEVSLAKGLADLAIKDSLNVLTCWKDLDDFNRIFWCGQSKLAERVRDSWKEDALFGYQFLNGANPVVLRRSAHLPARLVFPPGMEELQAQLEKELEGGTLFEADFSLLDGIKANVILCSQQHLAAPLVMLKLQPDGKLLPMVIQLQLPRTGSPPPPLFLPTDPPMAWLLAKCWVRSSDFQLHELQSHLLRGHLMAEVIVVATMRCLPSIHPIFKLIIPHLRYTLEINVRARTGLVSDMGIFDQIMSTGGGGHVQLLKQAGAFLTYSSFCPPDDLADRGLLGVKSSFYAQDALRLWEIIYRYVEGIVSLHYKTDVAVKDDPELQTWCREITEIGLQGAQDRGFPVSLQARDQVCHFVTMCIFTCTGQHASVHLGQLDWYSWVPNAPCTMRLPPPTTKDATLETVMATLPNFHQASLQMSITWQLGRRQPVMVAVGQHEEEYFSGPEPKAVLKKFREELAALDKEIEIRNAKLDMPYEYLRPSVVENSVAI
Chain of 5-LOX (P09917 whole entry): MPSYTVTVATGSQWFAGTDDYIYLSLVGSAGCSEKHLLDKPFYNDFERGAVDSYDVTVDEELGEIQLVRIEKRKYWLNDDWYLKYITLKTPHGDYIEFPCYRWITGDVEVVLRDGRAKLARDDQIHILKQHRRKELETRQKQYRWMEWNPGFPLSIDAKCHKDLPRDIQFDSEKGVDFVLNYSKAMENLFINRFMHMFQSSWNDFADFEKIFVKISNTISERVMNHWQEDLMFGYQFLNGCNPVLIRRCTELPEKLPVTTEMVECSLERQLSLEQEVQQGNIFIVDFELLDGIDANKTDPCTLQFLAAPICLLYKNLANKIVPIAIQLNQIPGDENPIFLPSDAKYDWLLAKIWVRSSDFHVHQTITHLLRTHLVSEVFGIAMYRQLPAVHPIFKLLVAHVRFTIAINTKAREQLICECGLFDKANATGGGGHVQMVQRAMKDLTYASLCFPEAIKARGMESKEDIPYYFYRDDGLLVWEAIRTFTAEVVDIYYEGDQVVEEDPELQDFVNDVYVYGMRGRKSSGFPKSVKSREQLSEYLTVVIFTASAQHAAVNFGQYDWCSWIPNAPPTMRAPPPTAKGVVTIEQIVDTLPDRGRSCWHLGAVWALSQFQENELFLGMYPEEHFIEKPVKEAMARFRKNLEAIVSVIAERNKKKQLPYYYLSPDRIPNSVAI
Chain of 15-LOX2 (O15296 whole entry): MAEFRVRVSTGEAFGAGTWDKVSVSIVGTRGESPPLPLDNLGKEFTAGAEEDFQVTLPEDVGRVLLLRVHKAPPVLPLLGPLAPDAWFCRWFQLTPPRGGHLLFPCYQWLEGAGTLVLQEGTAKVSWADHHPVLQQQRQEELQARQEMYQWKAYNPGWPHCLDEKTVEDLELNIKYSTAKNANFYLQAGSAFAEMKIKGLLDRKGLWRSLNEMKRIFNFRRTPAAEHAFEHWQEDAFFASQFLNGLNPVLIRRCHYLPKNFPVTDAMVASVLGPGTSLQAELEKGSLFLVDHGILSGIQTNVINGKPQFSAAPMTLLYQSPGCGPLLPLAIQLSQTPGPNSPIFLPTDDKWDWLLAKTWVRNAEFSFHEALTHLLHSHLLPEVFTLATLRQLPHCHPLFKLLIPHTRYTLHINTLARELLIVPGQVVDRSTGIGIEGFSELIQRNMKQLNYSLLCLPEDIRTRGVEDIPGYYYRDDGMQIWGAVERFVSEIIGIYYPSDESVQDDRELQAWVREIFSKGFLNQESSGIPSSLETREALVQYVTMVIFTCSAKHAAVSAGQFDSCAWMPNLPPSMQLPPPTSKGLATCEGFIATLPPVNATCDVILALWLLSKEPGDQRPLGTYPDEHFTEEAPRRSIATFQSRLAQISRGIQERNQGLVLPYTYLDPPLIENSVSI
Chain of COX-2 (P35354 18-604): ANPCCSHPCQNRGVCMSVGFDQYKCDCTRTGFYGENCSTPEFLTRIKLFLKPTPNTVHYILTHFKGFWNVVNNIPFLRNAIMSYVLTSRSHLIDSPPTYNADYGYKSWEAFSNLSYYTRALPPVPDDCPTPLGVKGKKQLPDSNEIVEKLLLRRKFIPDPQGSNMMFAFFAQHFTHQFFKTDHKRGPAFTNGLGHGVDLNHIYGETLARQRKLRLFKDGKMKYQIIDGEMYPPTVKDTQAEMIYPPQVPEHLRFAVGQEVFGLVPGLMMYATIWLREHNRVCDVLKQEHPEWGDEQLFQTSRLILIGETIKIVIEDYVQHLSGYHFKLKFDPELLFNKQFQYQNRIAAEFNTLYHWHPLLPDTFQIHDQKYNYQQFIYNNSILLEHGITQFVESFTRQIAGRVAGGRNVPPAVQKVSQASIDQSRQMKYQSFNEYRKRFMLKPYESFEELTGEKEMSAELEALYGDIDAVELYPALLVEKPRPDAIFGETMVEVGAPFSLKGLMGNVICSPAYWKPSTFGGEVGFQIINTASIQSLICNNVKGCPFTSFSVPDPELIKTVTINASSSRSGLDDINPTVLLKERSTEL

CNc1oc(-c2cc(Cl)cc(Cl)c2Cl)nc1C#N [Compound 1, 5-(methylamino)-2-(2,3,5-trichlorophenyl) oxazole-4-carbonitrile]
IC50 (h12/15-LOX): 0.12 µM | Emax (h12/15-LOX; h12/15-LOX, read-out: Max % inhibition): 94% | Sol [1]: + (“+” < 10 μM) | Extr (EH) ([2]; Human liver microsomes): ** (“**” 50-100%) | microsomal CLint ([2]; Human liver microsomes): 20 to 100 µL/min/mg | Extr (EH) ([2]; Mouse liver microsomes): ** (“**” 50-100%) | microsomal CLint ([2]; Mouse liver microsomes): 20 to 100 µL/min/mg | Extr (EH) ([2]; Rat liver microsomes): * (“*” <50%) | microsomal CLint ([2]; Rat liver microsomes): < 20 µL/min/mg | solution concentration achieved [3]: 20 mg/mL | IC50 (Mouse 12/15-LOX E. coli): 0.18 µM | Mouse 12/15-LOX E. coli % max (Mouse 12/15-LOX E. coli): 82% | EC50 (Mouse HT22): 5 µM | EC50 (Rat Primary Neuron): 9.5 µM | selectivity over 15-LOX2 (15-LOX2): > 400 fold | selectivity over 5-LOX (5-LOX): > 400 fold | selectivity over COX-1 (COX-1): > 400 fold | selectivity over COX-2 (COX-2): > 400 fold | Corner test, improvement compared to vehicle treatment ([4]; Week 1): 68.7% | Corner test, improvement compared to vehicle treatment ([4]; Week 4): 75.4% | Foot fault test, improvement compared to vehicle treatment ([5]; Week 1): 61.7% | Foot fault test, improvement compared to vehicle treatment ([5]; Week 4): 77.0% | Y maze % alternation [6]: no significant differences | Y maze entry number [6]: no difference between treatment groups | Neuronal cell death after SAH (SAH wild-type mice): reduced

Source: US20240336642A1 (The General Hospital Corporation, priority 2021, published 2024)
